In ChEMBL document CHEMBL1133259, “Polymethylcarborane as a novel bioactive moiety: derivatives with potent retinoid antagonistic activity” (Bioorg Med Chem Lett, 2000):

System: HL-60
Assay: Inhibitory concentration which reduces half the percentage of differentiated HL-60 cells induced by 1x 10 e-9 M Am80
Type: functional, cell-based
Conditions: Homo sapiens

IC50: 17 nM
Compound: CN1c2cc3c(cc2N=C(c2ccc(C(=O)O)cc2)c2ccc4ccccc4c21)C(C)(C)CCC3(C)C
